The results in this text go back to patent US20120220554A1, “Combretastatins for Prevention of Posterior Capsule Opacification” (OXIGENE, INC., priority 2010, published 2012).

Molecules are shown by their SMILES.

Assay [1] has as its system Primary bovine lens epithelial cells. The assay can be described thus: Primary bovine lens epithelial cells on the lens capsule, serum-free, continuous exposure: cell number and morphology. Type of assay: cell-based. On the procedure:
Primary bovine lens epithelial cells were cultured in serum-free conditions, survival factors being released from the lens capsule. Paclitaxel or combretastatin A-4 phosphate was added to the culture to a final concentration of 10 nM, 100 nM or 10 μM. Cell number was determined for each capsule at 48 h and 96 h after addition of the test agent. Two capsules were taken per treatment and cell numbers averaged after being expressed as a percentage of 48 h value. This indicates the increase/decrease in cell number within a 48 h time period (i.e. from 48 h to 96 h), normalized as a percentage. Independent T-test P value between CA4P control and 10 μM is 0.0002.
By light microscopy, CA4P has a dramatic effect upon cell morphology, retaining the cobblestone characteristic of the lens epithelium, when in the control cultures the lens cells have begun to trans-differentiate actinsm/desmin positive cells and migrate off the capsule. Pictures were taken from live primary bovine cells on the lens capsule with FujiFinepix (FIG. 3).

The test system of assay [2] is BIE cells. Briefly: MTT-based viable cell number assay in BIE cells. Set-up: species or system bovine. The settings on record: single 30 min treatment with 1 μM CA4P; over 72 h following treatment (FIG. 6). On the procedure: BMI-immortalized bovine lens epithelial cells (BIE cell line, produced in Roy Quinlan's Laboratory, University of Durham, UK), were seeded onto 12-well tissue culture plates in 10% fetal calf serum (FCS)-supplemented tissue culture medium (Sigma-Aldrich, UK) and kept at 37° C., 5% CO2 overnight. […] Viable cell number was assayed immediately and at 24 h, 48 h and 72 h after the end of exposure, using an MTT-based colorimetric assay (CellTiter95® Aqueous non-radioactive cell proliferation assay, Promega, UK), according to manufacturer's instructions. Briefly, the original cell culture medium was discarded from all wells and replaced by 500 µL of fresh medium, to which was added 100 µL of kit reagent. The wells were then returned to 37° C., 5% CO2 for 2 h 30 in the dark, after which […] were transferred from each well into a 96-well plate, which was read at 492 nm absorbance on an Anthos Lucy I (Anthos Labtech Instruments, Germany). The absorbance values were converted to cell numbers using standard curves specific to lens epithelial cells (determined in Roy Quinlan's laboratory, University of Durham, UK), and the viable cell numbers obtained were averaged with standard deviation. Significant differences in the values obtained between control and treated cells at different timepoints were assessed using an independent, two-tailed t-test.

The test system of assay [3] is BIE cells. The assay can be described thus: Ki67 immunofluorescence (cell proliferation) in BIE cells. It is filed as cell-based, bovine. Here is the method: BMI-immortalized bovine lens epithelial cells (BIE cell line, produced in Roy Quinlan's Laboratory, University of Durham, UK), were seeded onto 13 mm round coverslips in 6-well tissue culture plates in 10% fetal calf serum (FCS)-supplemented tissue culture medium (Sigma-Aldrich, UK) and kept at 37° C., 5% CO2 overnight. The next morning, they were exposed to 1 μM CA4P diluted in 10% FCS-supplemented medium for 30 min, after which the cells were returned to 10% FCS-supplemented medium. After 48 h, the prevalence of Ki67 positive cells was assessed by immunofluorescence.
BIE cells on coverslips were rinsed three times in PBS, followed by a single 20 min fixation in a 1:1 mix of methanol and acetone, three rinses in PBS/0.2 g/L BSA/0.2 g/L Na Azide and a single 20 min blocking step in 10% goat serum (Sigma-Aldrich, UK) diluted in PBS/BSA/NaAzide. The cells were then exposed to primary antibody (Ki-67: mouse monoclonal, 1/100, MIB-1 (DAKO, Denmark)) for 1 h at room temperature, after which they were rinsed three times in PBS/BSA/NaAzide and exposed to secondary antibody (goat anti-mouse IgG FITC-conjugated, 1/100; DAPI, 1/1000 (Sigma-Aldrich, UK)) for 1 h at room temperature in the dark. After three last rinses in PBS/BSA/NaAzide, the cells were plated onto microscope slides (VWR International, Belgium) and examined using a Zeiss LSM 510 Meta confocal microscope and its associated software. Ki-67 positive cells were counted out of a total of between 200 and 500 cells per coverslip, for two coverslips for each of three independent repeats, and expressed as the average percentage of Ki-67 positive cells out of the total number of cells counted (as determined by DAPI staining). Significant differences between control and treated cells were assessed by Chi^2-test.

In another assay the test system is Phosphorylated p38. Briefly: Phosphorylated p38 level. It is filed as cell-based, bovine. The settings on record: CA4P treatment (data not shown). On the procedure:
(§1) Phospho-Erk ½ levels were elevated immediately after the end of CA4P exposure in both control and treated cells and decreased 1 h after the end of CA4P exposure in both control and treated cells (FIG. 7). […] Therefore, it could be hypothesized that, in primary cells, a general stress response due to dissection will mask CA4P's effect on Erk phosphorylation. Phosphorylated p38 and JNK levels were not affected by CA4P treatment (data not shown).

A further assay relates to Phosphorylated JNK. The assay can be described thus: Phosphorylated JNK level. Type of assay: cell-based, bovine. The settings on record: CA4P treatment (data not shown). On the procedure:
as §1

Setting [4] is: 48 h after 30 min exposure to 1 μM CA4P.

Take `COc1ccc(/C=C\c2cc(OC)c(OC)c(OC)c2)cc1OP(=O)(O)O` [CA4P, combretastatin A-4 phosphate]: the “decline in cell number, compared with paclitaxel” value in assay [1] (10 nM, 100 nM or 10 μM, cell number at 48 h and 96 h, over a 96 hour exposure (FIG. 1, FIG. 2)) is “more effective than paclitaxel at inducing a decline in cell number”. Also, the “cell morphology by light microscopy” value in assay [1] (CA4P 10 μM, live primary bovine cells on the lens capsule, 48 and 96 h (FIG. 3)) is “show only epithelial sheets with the typical cobblestone appearance of the lens epithelium”. Further, in the assay with BIE cells [2], the “number of BIE cells (viable cell number, MTT)” value was “steady reduction in the number of BIE cells”. Besides, the nuclear morphology result in the assay on BIE cells [3] (30 h after exposure (data not shown)) is listed as “changes in nuclear morphology, as well as multinucleated cells were detected”. In addition, in the assay with BIE cells [3] (setting [4]), the “Ki67 negative (%)” value was determined as 85.1 ± 5.7% and the “Ki67 positive (%)” value was 14.9 ± 5.7%. Further, the cell loss result with BIE cells [3] (by 48 h after exposure) is “cell loss is extensive”. Further, in the assay with Phosphorylated p38, the “Phosphorylated p38 levels” value is reported as “not affected”. For the same compound, in the assay on Phosphorylated JNK, the “Phosphorylated JNK levels” value is on record as “not affected”.
